Test results published in patent US20240317709A1, “Lysophosphatidic Acid Receptor Antagonists for Breast Cancer Treatment” (Lakehead University, priority 2023, published 2024).
Like-named read-outs stand apart in the source and are kept apart here.

Experiments:
[1] = target: T1, LPA1 (Homo sapiens, UniProt Q92633); conditions: literature value (ref 15); read-out: IC50 in calcium release assay (LPA1); cited from earlier work
Target sequence in this assay (Q92633 whole entry, species assumed): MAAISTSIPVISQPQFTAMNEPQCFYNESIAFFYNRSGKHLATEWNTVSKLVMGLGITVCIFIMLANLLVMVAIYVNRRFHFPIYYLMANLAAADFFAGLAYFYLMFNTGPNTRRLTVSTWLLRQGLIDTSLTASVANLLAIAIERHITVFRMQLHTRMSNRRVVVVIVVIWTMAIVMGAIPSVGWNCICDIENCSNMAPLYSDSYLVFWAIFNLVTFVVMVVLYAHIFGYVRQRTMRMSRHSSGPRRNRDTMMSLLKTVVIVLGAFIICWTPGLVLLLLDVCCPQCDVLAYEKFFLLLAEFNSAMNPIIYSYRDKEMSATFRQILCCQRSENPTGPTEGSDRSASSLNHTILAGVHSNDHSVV

[2] = target: T2, LPAs (Homo sapiens, UniProt Q9UBY5); conditions: literature value (ref 15); read-out: LPAs IC50 in calcium release assay; cited from earlier work
T2 sequence (Q9UBY5 1-353): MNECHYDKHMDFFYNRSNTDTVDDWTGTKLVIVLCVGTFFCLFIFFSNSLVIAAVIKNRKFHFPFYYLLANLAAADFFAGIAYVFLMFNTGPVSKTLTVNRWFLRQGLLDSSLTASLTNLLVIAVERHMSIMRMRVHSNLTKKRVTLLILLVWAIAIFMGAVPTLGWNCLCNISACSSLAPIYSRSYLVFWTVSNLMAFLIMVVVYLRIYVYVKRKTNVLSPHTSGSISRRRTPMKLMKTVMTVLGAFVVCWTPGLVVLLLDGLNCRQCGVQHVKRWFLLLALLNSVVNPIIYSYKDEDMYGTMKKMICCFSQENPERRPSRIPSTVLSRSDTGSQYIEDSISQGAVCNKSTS

[3] = test system: lung fibroblast; conditions: in vitro; literature (ref 15); cited from earlier work
[4] = test system: histamine release induced by LPA; conditions: in vivo; literature (ref 15); cited from earlier work
[5] = target: T1, LPA1; assay: in vitro cAMP assay using a CHO cell line overexpressing LPA1 receptor; type: cell-based; set-up: GFP; host or cells: CHO-K1, transiently transfected; conditions: for % inhibition: cAMP assay, 1 μM LPA, 100 nM forskolin, test concentration not given
Target sequence in this assay (Q92633 whole entry): as the sequence (Q92633 whole entry, species assumed) above

[6] = test system: MDA-MB-231 cells; assay: colony formation assay; type: cell-based; conditions: LPA with 1f 0, 0.5, 1.0 or 1.5 mM, FIG. 2
Description: In order to study the effect of LPA and the compound 1f on the proliferation, migration, and invasion of MDA-MB-231, several in vitro assays were performed. Colony formation assay is a cell survival assay based on the ability of a single cell to grow into a colony and was performed to evaluate cell proliferation (17).
MDA-MB-231 cells were trypsinized and plated in 6-well plate at a density of 1,000 cells/well and then cultured in 10% FBS DMEM. Cells were allowed to attach overnight and then exposed to LPA or LPA with 1f (0, 0.5, 1.0 or 1.5 mM). Forty-eight hours after chemical treatment, the media was replaced with fresh media, and the plates were incubated at 37° C. Ten days later, the cells were fixed and stained with 4% paraformaldehyde in 0.1% crystal violet. The number of colonies, defined as >50 cells/colony were counted, and the number of colonies were calculated using ImageJ.

[7] = test system: MDA-MB-231 cells; assay: wound healing assay; type: cell-based; conditions: LPA with 1f 0, 0.5, 1.0 or 1.5 mM, 48 h, FIG. 3A
Description: Wound healing assay is a well-established method to determine cell migration in vitro. Firstly, a scratch was created in the cell monolayer, and then cells migrate to close the scratch. Cell migration rate can be measured using this method.
Cells were seeded in a six-well plate at a density of 3×10^5 cells/well. When the cells formed a tight cell monolayer, a 200-μl plastic pipette tip was used to make a scratch. Cells were washed with PBS to remove cell debris, cultured in serum-free DMEM medium and exposed to LPA or LPA with 1f (0, 0.5, 1.0 or 1.5 mM) for 48 h.
Wound photographs were recorded at the indicated times and analyzed by ImageJ software. All assays were conducted three times in our study.

[8] = test system: MDA-MB-231 cells; assay: transwell cell migration assay; type: cell-based; conditions: LPA with 1f 0, 0.5, 1.0 or 1.5 mM, 48 h, FIG. 3B
Description: (§1) In addition, transwell migration/invasion assays were performed to further confirm the effect of LPA and 1f on cell migration and invasion. Transwell assay is based on a chamber of two media-filled partitions separated by a microporous membrane. Cells were plated in the upper chamber and are allowed to migrate to the lower chamber through the membrane pores with the stimulation of LPA and 1f. For the invasion assay, a layer of basement membrane extract was precoated on the chamber to block the pores of the membrane and prevent non-invasive cells from migrating through the membranes. Invasive cells are able to secret proteases which degrade the membrane extract in order to invade through the membrane.
(§2) Transwell assays were conducted in 24-well transwell plates (pore size: 8 μm) to assess the migratory and invasive capacities of MDA-MB-231 cells. For migration assays, 2×10^4 cells were placed in 200 μl of serum-free DMEM in the upper chamber and then 500 μl of DMEM containing 10% FBS was added to the lower chamber. For the invasion assays, the chamber inserts were precoated with 50 μl of 1:9 mixture of basement membrane extract (R&D Systems) and DMEM overnight in a 37° C. incubator, then 6×10^4 cells were seeded in the upper chamber. 500 μl of DMEM containing 10% FBS was added to the lower chamber. Cells were treated with LPA or LPA with 1f (0, 0.5, 1.0 or 1.5 mM) for 48 h. […]

[9] = test system: MDA-MB-231 cells; assay: transwell cell invasion assay; type: cell-based; conditions: basement membrane extract coated, LPA with 1f 0, 0.5, 1.0 or 1.5 mM, 48 h, FIG. 3B
Description: as §1, §2

[10] = concentration to reverse 50% of the inhibitory effect of 1 μM 18:1 LPA on forskolin-mediated cAMP production, CHO-K1 overexpressing LPA1

| SMILES | % inhibition [5] | IC50 [5, 10] | further results |
| --- | --- | --- | --- |
| Cc1nnn(-c2ccc(-c3ccc(C4(C(=O)O)CC4)cc3)cc2)c1NC(=O)OC(C)c1ccc(F)cc1 (stereo not shown) [Compound 1e, 1-(4′-(5-(((1-(4-fluorophenyl)ethoxy)carbonyl)amino)-4-methyl-1H-1,2,3-triazol-1-yl)-[1,1-biphenyl]-4-yl)cyclopropane-1-carboxylic acid] | 102.1% | 93.3 nM | – |
| Cc1nnn(-c2ccc(-c3ccc(C4(C(=O)O)CC4)cc3)cc2)c1NC(=O)OC(C)c1cccc(F)c1 (stereo not shown) [Compound 1f, 1-(4′-(5-(((1-(3-fluorophenyl)ethoxy)carbonyl)amino)-4-methyl-1H-1,2,3-triazol-1-yl)-[1,1′-biphenyl]-4-yl)cyclopropane-1-carboxylic acid] | 109.8% | 16 nM | inhibition of LPA-induced cell proliferation (colony formation) [6]: inhibited LPA-induced MDA-MB-231 cell proliferation in a dose-dependent manner; inhibition of LPA-induced cell migration (wound healing) [7]: impeded cell migration dose-dependently; inhibition of LPA-induced cell migration (transwell) [8]: hindered by 1f dose-dependently; inhibition of LPA-induced cell invasion (transwell) [9]: hindered by 1f dose-dependently; IC50 (nM) [5, 10]: lower than the control compound |
| CCc1cccc(COC(=O)Nc2c(C)nnn2-c2ccc(-c3ccc(C4(C(=O)O)CC4)cc3)cc2)c1 [Compound 1h, 1-(4′-(5-((((3-ethylbenzyl)oxy)carbonyl)amino)-4-methyl-1H-1,2,3-triazol-1-yl)-[1,1′-biphenyl]-4-yl)cyclopropane-1-carboxylic acid] | 115.7% | 91.2 nM | – |
| Cc1nnn(-c2ccc(-c3ccc(C4(C(=O)O)CC4)cc3)cc2)c1NC(=O)OCc1cccc(F)c1 [Compound 1c, 1-(4′-(5-((((3-fluorobenzyl)oxy)carbonyl)amino)-4-methyl-1H-1,2,3-triazol-1-yl)-[1,1′-biphenyl]-4-yl)cyclopropane-1-carboxylic acid] | 77.1% | 2150 nM | – |
| Cc1nnn(-c2ccc(-c3ccc(C4(C(=O)O)CC4)cc3)cc2)c1NC(=O)OCc1ccccc1F [Compound 1d, 1-(4′-(5-((((2-fluorobenzyl)oxy)carbonyl)amino)-4-methyl-1H-1,2,3-triazol-1-yl)-[1,1′-biphenyl]-4-yl)cyclopropane-1-carboxylic acid] | 81.9% | 1490 nM | – |
| Cc1nnn(-c2ccc(-c3ccc(C4(C(=O)O)CC4)cc3)cc2)c1NC(=O)OCc1ccc(F)cc1 [Compound 1b, 1-(4′-(5-((((4-fluorobenzyl)oxy)carbonyl)amino)-4-methyl-1H-1,2,3-triazol-1-yl)-[1,1′-biphenyl]-4-yl)cyclopropane-1-carboxylic acid] | 58.43% | 3340 nM | – |

Second part, led by results:

| % inhibition [5] | IC50 [5, 10] | SMILES | further results |
| --- | --- | --- | --- |
| 111.6% | 18.3 nM | Cc1nnn(-c2ccc(-c3ccc(C4(C(=O)O)CC4)cc3)cc2)c1NC(=O)O[C@H](C)c1ccccc1 [RO-2] | IC50 [1]: 25 nM; IC50 [2]: > 30000 nM; inhibition of lung fibroblast contraction induced by LPA [3]: inhibited lung fibroblast proliferation and contraction induced by LPA in vitro; inhibition of lung fibroblast proliferation induced by LPA [3]: inhibited lung fibroblast proliferation and contraction induced by LPA in vitro; histamine release induced by LPA [4]: ameliorated histamine release induced by LPA in vivo |
| 83.8% | 240 nM | Cc1nnn(-c2ccc(-c3ccc(C4(C(=O)O)CC4)cc3)cc2)c1NC(=O)NC(C)c1ccccc1 (stereo not shown) [Compound 2h, 1-(4′-(4-methyl-5-(3-(1-phenylethyl)ureido)-1H-1,2,3-triazol-1-yl)-[1,1′-biphenyl]-4-yl)cyclopropane-1-carboxylic acid] | – |
| 40.5% | 3150 nM | Cc1nnn(-c2ccc(-c3ccc(C4(C(=O)O)CC4)cc3)cc2)c1NC(=O)NCc1ccc(F)cc1 [Compound 2b, 1-(4′-(5-(3-(4-fluorobenzyl)ureido)-4-methyl-1H-1,2,3-triazol-1-yl)-[1,1′-biphenyl]-4-yl)cyclopropane-1-carboxylic acid] | – |
| 108.1% | 242 nM | Cc1nnn(-c2ccc(-c3ccc(C4(C(=O)O)CC4)cc3)cc2)c1NC(=O)N[C@H](C)c1ccccc1 [Compound 2f, (R)-1-(4′-(4-methyl-5-(3-(1-phenylethyl)ureido)-1H-1,2,3-triazol-1-yl)-[1,1′-biphenyl]-4-yl)cyclopropane-1-carboxylic acid] | – |
| 92.7% | 299 nM | Cc1nnn(-c2ccc(-c3ccc(C4(C(=O)O)CC4)cc3)cc2)c1NC(=O)N[C@@H](C)c1ccccc1 [Compound 2g, (S)-1-(4′-(4-methyl-5-(3-(1-phenylethyl)ureido)-1H-1,2,3-triazol-1-yl)-[1,1′-biphenyl]-4-yl)cyclopropane-1-carboxylic acid] | – |
| 88.1% | 2000 nM | Cc1nnn(-c2ccc(-c3ccc(C4(C(=O)O)CC4)cc3)cc2)c1NC(=O)NCc1cccc(F)c1 [Compound 2c, 1-(4′-(5-(3-(3-fluorobenzyl)ureido)-4-methyl-1H-1,2,3-triazol-1-yl)-[1,1′-biphenyl]-4-yl)cyclopropane-1-carboxylic acid] | – |
| 49.5% | 4470 nM | Cc1nnn(-c2ccc(-c3ccc(C4(C(=O)O)CC4)cc3)cc2)c1NC(=O)NCc1ccccc1F [Compound 2d, 1-(4′-(5-(3-(2-fluorobenzyl)ureido)-4-methyl-1H-1,2,3-triazol-1-yl)-[1,1′-biphenyl]-4-yl)cyclopropane-1-carboxylic acid] | – |
| 102.0% | 780 nM | Cc1nnn(-c2ccc(-c3ccc(C4(C(=O)O)CC4)cc3)cc2)c1NC(=O)N[C@H](C)c1ccc(F)cc1 [Compound 2e, (R)-1-(4′-(5-(3-(1-(4-fluorophenyl)ethyl)ureido)-4-methyl-1H-1,2,3-triazol-1-yl)-[1,1′-biphenyl]-4-yl)cyclopropane-1-carboxylic acid] | – |
| 41.8% | 1000 nM | Cc1nnn(-c2ccc(-c3ccc(C4(C(=O)O)CC4)cc3)cc2)c1NC(=O)NCc1ccccn1 [Compound 2a, 1-(4′-(4-methyl-5-(3-(pyridin-2-ylmethyl)ureido)-1H-1,2,3-triazol-1-yl)-[1,1′-biphenyl]-4-yl)cyclopropane-1-carboxylic acid] | – |
